#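 Each compound was tested at five concentrations against cells in 96-well plates for 48 hours. The concentration for full growth arrest is given as TGI.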
# Experiments:
# Test in all cases: NCI tumour cell line growth inhibition, 48 h
# [1] = system: ACHN renal
# [2] = system: HCT-116 colon
# [3] = system: HT29 colon
# [4] = system: K-562 leukemia
# [5] = system: MALME-3M melanoma
# [6] = system: MDA-MB-435
# [7] = system: MOLT-4 leukemia
# [8] = system: NCI-H460 lung
# [9] = system: NCI-H522 lung
# [10] = system: OVCAR-4 ovarian
# [11] = system: OVCAR-5 ovarian
# [12] = system: RXF 393 renal
# [13] = system: SF-268 CNS
# [14] = system: SF-539 CNS
# [15] = system: SK-MEL-2 melanoma
# [16] = system: SK-MEL-5 melanoma
# [17] = system: SR leukemia
# [18] = system: TK-10 renal
# [19] = system: HOP-62 NSCLC
# [20] = system: UO-31 renal
SMILES,TGI [1],TGI [2],TGI [3],TGI [4],TGI [5],TGI [6],TGI [7],TGI [8],TGI [9],TGI [10],TGI [11],TGI [12],TGI [13],TGI [14],TGI [15],TGI [16],TGI [17],TGI [18],TGI [19],TGI [20]
N#CC1(C#N)[C@@H]2CCC=C(Sc3ccccc3)[C@@H]21,33.1 µM,29.6 µM,34.8 µM,> 100 µM,32 µM,26.8 µM,85.9 µM,53.6 µM,24.5 µM,29 µM,32 µM,26.3 µM,39 µM,34.7 µM,28.3 µM,29.4 µM,> 100 µM,28.9 µM,,
COC(=O)c1sc2c(=O)c(C(=O)OC)c(C(=O)OC)sc2c(=O)c1C(=O)OC,> 100 µM,> 100 µM,> 100 µM,> 100 µM,> 100 µM,> 100 µM,> 100 µM,> 100 µM,65.2 µM,> 100 µM,> 100 µM,> 100 µM,> 100 µM,> 100 µM,> 100 µM,> 100 µM,> 100 µM,> 100 µM,> 100 µM,> 100 µM
Cc1cccc2c(NCCN(C)C)c3cccc(C(=O)NCCN(C)C)c3nc12,4.33 µM,4.87 µM,4.16 µM,0.065 µM,1.62 µM,1.1 µM,0.102 µM,4.08 µM,0.114 µM,> 100 µM,14.4 µM,2.54 µM,2.85 µM,0.68 µM,1.13 µM,0.962 µM,0.319 µM,8.94 µM,3.93 µM,1.63 µM
O=C(O)c1ccccc1/C=C1/Cc2ccc3c(c2C1=O)CCC3,> 100 µM,> 100 µM,> 100 µM,> 100 µM,> 100 µM,74.9 µM,> 100 µM,> 100 µM,> 100 µM,> 100 µM,> 100 µM,> 100 µM,> 100 µM,43.6 µM,44.9 µM,46.2 µM,91.3 µM,> 100 µM,> 100 µM,> 100 µM
O=S1(=O)c2ccccc2N2C(c3ccccc3)=NOC2(c2ccccc2)CC1c1ccc(Br)cc1 (centres undefined),> 100 µM,> 100 µM,> 100 µM,> 100 µM,> 100 µM,> 100 µM,> 100 µM,> 100 µM,> 100 µM,> 100 µM,> 100 µM,> 100 µM,> 100 µM,> 100 µM,> 100 µM,> 100 µM,> 100 µM,> 100 µM,> 100 µM,> 100 µM
O=C(O)/C=C/c1ccc(OS(=O)(=O)O)cc1,> 100 µM,> 100 µM,> 100 µM,> 100 µM,> 100 µM,> 100 µM,> 100 µM,> 100 µM,> 100 µM,> 100 µM,> 100 µM,> 100 µM,> 100 µM,> 100 µM,> 100 µM,> 100 µM,> 100 µM,> 100 µM,> 100 µM,> 100 µM
O=C1/C(=C/c2ccccc2)CCc2ccc([N+](=O)[O-])cc21,> 100 µM,> 100 µM,> 100 µM,> 100 µM,> 100 µM,> 100 µM,> 100 µM,> 100 µM,,> 100 µM,> 100 µM,77.7 µM,> 100 µM,> 100 µM,38.3 µM,> 91.2 µM,> 63.3 µM,> 100 µM,> 100 µM,> 100 µM
Cc1ccc(N=C2OP(=O)(Nc3ccc(C)cc3)Oc3ccccc32)cc1 (centres undefined),> 100 µM,> 100 µM,> 100 µM,> 100 µM,> 100 µM,> 100 µM,> 100 µM,> 100 µM,,> 100 µM,> 100 µM,> 100 µM,> 100 µM,> 100 µM,> 100 µM,> 100 µM,> 100 µM,> 100 µM,> 100 µM,> 100 µM
O=C(c1ccccc1)N(CCCCNC(=O)C(F)(F)F)CCCNC(=O)C(F)(F)F,> 100 µM,> 100 µM,> 100 µM,> 100 µM,> 100 µM,> 100 µM,> 100 µM,> 100 µM,> 100 µM,> 100 µM,> 100 µM,> 100 µM,> 100 µM,> 100 µM,,> 100 µM,> 100 µM,> 100 µM,,> 100 µM
COc1ccccc1/C=N/Nc1nnc2c3ccccc3c3ncccc3c2n1,> 100 µM,> 100 µM,> 100 µM,> 100 µM,> 100 µM,> 100 µM,> 100 µM,> 100 µM,> 100 µM,60.1 µM,> 100 µM,55.6 µM,> 100 µM,76 µM,> 100 µM,> 100 µM,> 100 µM,> 100 µM,49.2 µM,> 100 µM
CN(C)/C=C/c1c2c(nc3ccccc13)C(=O)c1cccnc1C2=O,2.28 µM,0.697 µM,5.15 µM,3.75 µM,2.26 µM,1.56 µM,6.98 µM,0.532 µM,1.13 µM,4.01 µM,3.95 µM,3.48 µM,4.02 µM,1.21 µM,4.1 µM,0.346 µM,0.907 µM,4.03 µM,0.435 µM,3.02 µM

# — PubChem BioAssay (NCI)
